Each compound was assayed on TEAD response element (TRE) luciferase reporter in MCF-7 cell lines (assay: TEAD response element (TRE) reporter assay). Conditions: Homo sapiens, MCF7; 0.2 μM compound, 24 hours, MCF-7 TEAD reporter cells, relative to vehicle (1% DMSO).
Format: cell-based
Experimental: MCF-7 cell lines injected with TEAD reporter genes expressing firefly luciferase upon activation of TEAD response element (TRE) were obtained from BPS bioscience (#60618). The TEAD reporter genes were injected to stable expression in the MCF-7 cell lines.
TEAD reporter genes expressing firefly luciferase upon activation of TEAD response element (TRE) were injected with TEAD reporter genes to ensure stable expression of the TEAD reporter genes. Here, the TEAD reporter genes expresses firefly luciferase upon activation of TEAD response element (TRE). The cells were cultured in a cell-only culture medium (BPS bioscience) to which 10 μg/mL insulin (Sigma) was added at 37° C. and 5% CO2.
In 24 hours after dispensing said cells into a 96-well plate, each of the compounds of the examples or a vehicle solvent (final 1% DMSO) was treated by being diluted with a serum-free culture medium so that the final concentration became 0.2 μM. In 24 hours after said treatment, a luciferase assay working solution (ONE-Step Luciferase assay reagent; BPS bioscience) containing a luciferase substrate was treated in each well at 100 μL, and then left in a shaker for 15 minutes to be well mixed. Then, a degree of luminescence generated by luciferase expressed according to TEAD activation was measured by a microplate reader (TECAN). A relative activity of luciferase […], and the results are shown in table 8 below.

SMILES	inhibition at 0.2 µM [%]
C=CS(=O)(=O)Nc1cnc2ncn(-c3ccc(C4CCCCC4)cc3)c2c1 [Compound 1, N-(1-(4-cyclohexylphenyl)-1H-imidazo[4,5-b]pyridin-6-yl)ethenesulfonamide]	< 30
C=CC(=O)Nc1cnc2ncn(-c3ccc(C4CCCCC4)cc3)c2c1 [Compound 2, N-(1-(4-cyclohexylphenyl)-1H-imidazo[4,5-b]pyridin-6-yl)acrylamide]	< 30
C=CC(=O)Nc1cnc2c(ccn2Cc2ccc(C(F)(F)F)cc2)c1 [Compound 4, N-(1-(4-(trifluoromethyl)benzyl)-1H-pyrrolo[2,3-b]pyridin-5-yl)acrylamide]	30 to 50
C=CC(=O)Nc1ccc2c(cnn2Cc2ccc(C(F)(F)F)cc2)c1 [Compound 6, N-(1-(4-(trifluoromethyl)benzyl)-1H-indazol-5-yl)acrylamide]	30 to 50
C=CC(=O)Nc1ccc2c(c1)CCN2Cc1ccc(C(F)(F)F)cc1 [Compound 7, N-(1-(4-(trifluoromethyl)benzyl)indolin-5-yl)acrylamide]	> 50
C=CC(=O)Nc1cnc2c(cnn2CC2CCCC2)c1 [Compound 8, N-(1-(cyclopentylmethyl)-1H-pyrazolo[3,4-b]pyridin-5-yl)acrylamide]	30 to 50
C=CC(=O)Nc1cnc2c(c1)c(C)cn2CC1CCCC1 [Compound 9, N-(1-(cyclopentylmethyl)-3-methyl-1H-pyrrolo[2,3-b]pyridin-5-yl)acrylamide]	> 50
C=CC(=O)Nc1cnc2c(c1)c(C)cn2CC1CCC(F)(F)CC1 [Compound 10, N-(1-((4,4-difluorocyclohexyl)methyl)-3-methyl-1H-pyrrolo[2,3-b]pyridin-5-yl)acrylamide]	> 50
C=CC(=O)Nc1cnc2c(cnn2CC2CCC(F)(F)CC2)c1 [Compound 11, N-(1-((4,4-difluorocyclohexyl)methyl)-1H-pyrazolo[3,4-b]pyridin-5-yl)acrylamide]	30 to 50
C=CC(=O)Nc1cnc2c(cnn2CCCOC(F)(F)F)c1 [Compound 12, N-(1-(3-(trifluoromethoxy)propyl)-1H-pyrazolo[3,4-b]pyridin-5-yl)acrylamide]	< 30
C=CC(=O)Nc1cnc2c(c1)c(C)nn2Cc1ccc(C(F)(F)F)cc1 [Compound 13, N-(3-methyl-1-(4-(trifluoromethyl)benzyl)-1H-pyrazolo[3,4-b]pyridin-5-yl)acrylamide]	30 to 50
C=CC(=O)Nc1cnc2c(c1)c(C)nn2CC1CCC(F)(F)CC1 [Compound 14, N-(1-((4,4-difluorocyclohexyl)methyl)-3-methyl-1H-pyrazolo[3,4-b]pyridin-5-yl)acrylamide]	> 50
C=CC(=O)Nc1cnc2c(ccn2Cc2ccc(C(F)(F)F)cc2)n1 [Compound 15, N-(5-(4-(trifluoromethyl)benzyl)-5H-pyrrolo[2,3-b]pyrazin-2-yl)acrylamide]	> 50
C=CC(=O)Nc1cnc2c(cnn2Cc2ccc(C(F)(F)F)cc2)n1 [Compound 16, N-(1-(4-(trifluoromethyl)benzyl)-1H-pyrazolo[3,4-b]pyrazin-5-yl)acrylamide]	> 50
C=CC(=O)Nc1ccc2cnn(Cc3ccc(C(F)(F)F)cc3)c2c1 [Compound 17, N-(1-(4-(trifluoromethyl)benzyl)-1H-indazol-6-yl)acrylamide]	30 to 50
C=CC(=O)Nc1cnc2c(ccn2Cc2ccc(C(F)(F)F)cc2)c1OC [Compound 18, N-(4-methoxy-1-(4-(trifluoromethyl)benzyl)-1H-pyrrolo[2,3-b]pyridin-5-yl)acrylamide]	30 to 50

These compounds were tested against T1, recombinant GST-TEAD1 proteins (209 to 426 a.a.) (Homo sapiens, UniProt P28347) (assay: Evaluation of palmitoylation of TEAD protein). Conditions: 5 μM compound, 15 minutes preincubation, 3 μM alkyne palmitoyl-CoA 30 minutes, pH 6.4, vs DMSO control.
T1 construct: recombinant GST-TEAD1 proteins (209 to 426 a.a.)
Format: biochemical
Experimental: Each compound corresponding to a concentration of 5 μM was added to recombinant GST-TEAD1 proteins (209 to 426 a.a.) and cultured for 15 minutes. For an autopalmitoylation reaction of proteins after culturing, 3 μM alkyne palmitoyl-CoA (Cayman chemical) and 50 mM MES buffer (pH 6.4) were added and cultured for 30 minutes, after which 1% of sodium dodecyl sulfate (SDS) was added to stop the reaction. After that, biotinylation was performed through a CLICK (Click chemistry tools) reaction, and then a protein solution was concentrated to prepare a sample.
Analysis of the sample was performed using SDS-PAGE and streptavidin HRP (Thermo scientific). The resulting values were quantified using an Image J (NIH). For the intensity of the band obtained from Streptavidin blot, a palmitoylation inhibitory activity was analyzed based on the control group (DMSO). The normalization of each sample was performed using an anti-GST (91G1) (cell signaling) antibody.

T1 sequence (P28347 209-426): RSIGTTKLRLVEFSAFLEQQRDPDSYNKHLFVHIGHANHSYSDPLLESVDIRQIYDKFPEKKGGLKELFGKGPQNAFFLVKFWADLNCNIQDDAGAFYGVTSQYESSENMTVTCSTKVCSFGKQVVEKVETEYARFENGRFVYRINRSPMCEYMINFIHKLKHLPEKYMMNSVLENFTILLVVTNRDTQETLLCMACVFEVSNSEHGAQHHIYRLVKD

SMILES	inhibition at 5 µM [%]
C=CC(=O)Nc1ccc2c(c1)CCN2Cc1ccc(C(F)(F)F)cc1 [Compound 7, N-(1-(4-(trifluoromethyl)benzyl)indolin-5-yl)acrylamide]	> 80
C=CC(=O)Nc1cnc2c(cnn2CC2CCCC2)c1 [Compound 8, N-(1-(cyclopentylmethyl)-1H-pyrazolo[3,4-b]pyridin-5-yl)acrylamide]	40 to 80
C=CC(=O)Nc1cnc2c(c1)c(C)cn2CC1CCCC1 [Compound 9, N-(1-(cyclopentylmethyl)-3-methyl-1H-pyrrolo[2,3-b]pyridin-5-yl)acrylamide]	> 80
C=CC(=O)Nc1cnc2c(c1)c(C)cn2CC1CCC(F)(F)CC1 [Compound 10, N-(1-((4,4-difluorocyclohexyl)methyl)-3-methyl-1H-pyrrolo[2,3-b]pyridin-5-yl)acrylamide]	> 80
C=CC(=O)Nc1cnc2c(cnn2CC2CCC(F)(F)CC2)c1 [Compound 11, N-(1-((4,4-difluorocyclohexyl)methyl)-1H-pyrazolo[3,4-b]pyridin-5-yl)acrylamide]	40 to 80
C=CC(=O)Nc1cnc2c(cnn2CCCOC(F)(F)F)c1 [Compound 12, N-(1-(3-(trifluoromethoxy)propyl)-1H-pyrazolo[3,4-b]pyridin-5-yl)acrylamide]	< 40
C=CC(=O)Nc1cnc2c(c1)c(C)nn2CC1CCC(F)(F)CC1 [Compound 14, N-(1-((4,4-difluorocyclohexyl)methyl)-3-methyl-1H-pyrazolo[3,4-b]pyridin-5-yl)acrylamide]	40 to 80
C=CC(=O)Nc1cnc2c(cnn2Cc2ccc(C(F)(F)F)cc2)n1 [Compound 16, N-(1-(4-(trifluoromethyl)benzyl)-1H-pyrazolo[3,4-b]pyrazin-5-yl)acrylamide]	< 40
C=CC(=O)Nc1ccc2cnn(Cc3ccc(C(F)(F)F)cc3)c2c1 [Compound 17, N-(1-(4-(trifluoromethyl)benzyl)-1H-indazol-6-yl)acrylamide]	40 to 80

Continued, values first:

inhibition at 5 µM [%]	SMILES
40 to 80	C=CC(=O)Nc1cnc2c(ccn2Cc2ccc(C(F)(F)F)cc2)c1 [Compound 4, N-(1-(4-(trifluoromethyl)benzyl)-1H-pyrrolo[2,3-b]pyridin-5-yl)acrylamide]
> 80	C=CC(=O)Nc1ccc2c(cnn2Cc2ccc(C(F)(F)F)cc2)c1 [Compound 6, N-(1-(4-(trifluoromethyl)benzyl)-1H-indazol-5-yl)acrylamide]
> 80	C=CC(=O)Nc1cnc2c(c1)c(C)nn2Cc1ccc(C(F)(F)F)cc1 [Compound 13, N-(3-methyl-1-(4-(trifluoromethyl)benzyl)-1H-pyrazolo[3,4-b]pyridin-5-yl)acrylamide]
> 80	C=CC(=O)Nc1cnc2c(ccn2Cc2ccc(C(F)(F)F)cc2)n1 [Compound 15, N-(5-(4-(trifluoromethyl)benzyl)-5H-pyrrolo[2,3-b]pyrazin-2-yl)acrylamide]
> 80	C=CC(=O)Nc1cnc2c(ccn2Cc2ccc(C(F)(F)F)cc2)c1OC [Compound 18, N-(4-methoxy-1-(4-(trifluoromethyl)benzyl)-1H-pyrrolo[2,3-b]pyridin-5-yl)acrylamide]

From patent US20250171451A1, “NOVEL HETEROCYCLIC COMPOUND AND PHARMACEUTICAL COMPOSITION COMPRISING SAME” (Samjin Pharmaceutical Co., Ltd., priority 2022, published 2025)
